Measured values: ChEMBL document CHEMBL1158645, “Antitumor agents 37. The isolation and structural elucidation of isohelenol, a new antileukemic sesquiterpene lactone, and isohelenalin from Helenium microcephalum” (1979)

Tested on: P388
Assay: In vivo antitumor activity against mouse P388 lymphocytic leukemia at 12.5 mg/kg
Type: functional

C[C@@H]1C[C@H]2OC(=O)C(CO)=C2[C@H](O)[C@]2(C)C(=O)C=C[C@@H]12 [ISOHELENOL]
T/C: 133%
